Test results as given in ChEMBL document CHEMBL3885881, “DrugMatrix”.

Organism: Rattus norvegicus
Assay: DrugMatrix - Regimen: Daily Repeat
Format: toxicity, organism-based, Sprague-Dawley
Parameters: regimen Daily Repeat, gender Male, age 6-8 weeks
Conditions: in vivo, po, route oral GAVAGE, vehicle .5 % CMC; for ABSOLUTE BASOPHIL / ABSOLUTE EOSINOPHIL / ABSOLUTE LYMPHOCYTE / ABSOLUTE SEGMENTED NEUTROPHIL / BASOPHIL / EOSINOPHIL / ERYTHROCYTE COUNT / HEMATOCRIT / HEMOGLOBIN / LEUKOCYTE COUNT / LYMPHOCYTE / MEAN CORPUSCULAR HEMOGLOBIN / MEAN CORPUSCULAR HEMOGLOBIN CONCENTRATION / MEAN CORPUSCULAR VOLUME / MONOCYTE / NEUTROPHIL / NUCLEATED RED BLOOD CELLS / PLATELET COUNT: tissue Blood; for ALANINE AMINOTRANSFERASE / ASPARTATE AMINOTRANSFERASE / BLOOD UREA NITROGEN / CARBON DIOXIDE / CHLORIDE / CHOLESTEROL / CREATINE PHOSPHOKINASE / CREATININE / GLUCOSE / LACTATE DEHYDROGENASE / LIPASE / PHOSPHORUS / POTASSIUM / SODIUM / TOTAL BILIRUBIN / TOTAL PROTEIN / URIC ACID: tissue Plasma
[1] = 30 mg/kg, 72 h, dose level Low, time 3 day
[2] = 30 mg/kg, 120 h, dose level Low, time 5 day
[3] = 490 mg/kg, 72 h, dose level High, time 3 day
[4] = 490 mg/kg, 120 h, dose level High, time 5 day

In the case of `NC(=O)N1c2ccccc2C=Cc2ccccc21` [CARBAMAZEPINE], the “ABSOLUTE BASOPHIL” value [1] is reported as 0 CELLS/uL, the “ABSOLUTE EOSINOPHIL” value [1] is reported as 182 CELLS/uL and the “ABSOLUTE LYMPHOCYTE” value [1] is reported as 15035.33 CELLS/uL. For the same compound, the “ABSOLUTE SEGMENTED NEUTROPHIL” value [1] was 1745.67 CELLS/uL, the BASOPHIL [1] was 0% and the EOSINOPHIL [1] was 1%. For the same compound, the “ERYTHROCYTE COUNT” value [1] was 5.25 x10E6/uL, the HEMATOCRIT [1] was 33.47% and the HEMOGLOBIN [1] was 12.6 G/DL. For the same compound, the “LEUKOCYTE COUNT” value [1] was 17.3 x10E3/uL, the LYMPHOCYTE [1] was 86.67% and the “MEAN CORPUSCULAR HEMOGLOBIN” value [1] was 24.03 pg. The “MEAN CORPUSCULAR HEMOGLOBIN CONCENTRATION” value [1] was 37.67 G/DL, the “MEAN CORPUSCULAR VOLUME” value [1] was 63.8 fL and the MONOCYTE [1] was 2%. For the same compound, the NEUTROPHIL [1] was 10.33%, the “NUCLEATED RED BLOOD CELLS” value [1] was 0 /100WBC and the “PLATELET COUNT” value [1] was 1486.67 x10E3/uL. The “ALANINE AMINOTRANSFERASE” value [1] was 52 u/L, the “ASPARTATE AMINOTRANSFERASE” value [1] was 78.33 u/L and the “BLOOD UREA NITROGEN” value [1] was 16.33 mg/dL. The “CARBON DIOXIDE” value [1] was 25.67 mmol/L, the CHLORIDE [1] was 101.67 MEQ/L and the CHOLESTEROL [1] was 69.67 mg/dL. For the same compound, the “CREATINE PHOSPHOKINASE” value [1] was 157.33 u/L, the CREATININE [1] was 0.2 mg/dL and the GLUCOSE [1] was 143.33 mg/dL. The “LACTATE DEHYDROGENASE” value [1] was 208 u/L, the LIPASE [1] was 9 u/L and the PHOSPHORUS [1] was 11.33 mg/dL. The POTASSIUM [1] was 6.9 MEQ/L, the SODIUM [1] was 145 MEQ/L and the “TOTAL BILIRUBIN” value [1] was 0.2 mg/dL. The “TOTAL PROTEIN” value [1] was 5.53 G/DL, the “URIC ACID” value [1] was 1.57 mg/dL and the “ABSOLUTE BASOPHIL” value [2] was 0 CELLS/uL. For the same compound, the “ABSOLUTE EOSINOPHIL” value [2] was 0 CELLS/uL, the “ABSOLUTE LYMPHOCYTE” value [2] was 16159 CELLS/uL and the “ABSOLUTE SEGMENTED NEUTROPHIL” value [2] was 1742.33 CELLS/uL. The BASOPHIL [2] was 0%, the EOSINOPHIL [2] was 0% and the “ERYTHROCYTE COUNT” value [2] was 5.72 x10E6/uL. The HEMATOCRIT [2] was 35.57%, the HEMOGLOBIN [2] was 13.07 G/DL and the “LEUKOCYTE COUNT” value [2] was 18.27 x10E3/uL. The LYMPHOCYTE [2] was 88.33%, the “MEAN CORPUSCULAR HEMOGLOBIN” value [2] was 22.87 pg and the “MEAN CORPUSCULAR HEMOGLOBIN CONCENTRATION” value [2] was 36.73 G/DL. The “MEAN CORPUSCULAR VOLUME” value [2] was 62.2 fL, the MONOCYTE [2] was 2% and the NEUTROPHIL [2] was 9.67%. The “NUCLEATED RED BLOOD CELLS” value [2] was 0 /100WBC, the “PLATELET COUNT” value [2] was 1400 x10E3/uL and the “ALANINE AMINOTRANSFERASE” value [2] was 40 u/L. The “ASPARTATE AMINOTRANSFERASE” value [2] was 84 u/L, the “BLOOD UREA NITROGEN” value [2] was 19.67 mg/dL and the “CARBON DIOXIDE” value [2] was 25.33 mmol/L. The CHLORIDE [2] was 106.67 MEQ/L, the CHOLESTEROL [2] was 60 mg/dL and the “CREATINE PHOSPHOKINASE” value [2] was 371 u/L. The CREATININE [2] was 0.18 mg/dL, the GLUCOSE [2] was 138.67 mg/dL and the “LACTATE DEHYDROGENASE” value [2] was 600.67 u/L. It also gave an LIPASE [2] of 8.67 u/L, a PHOSPHORUS [2] of 11.47 mg/dL and a POTASSIUM [2] of 6.31 MEQ/L. The SODIUM [2] was 144.97 MEQ/L, the “TOTAL BILIRUBIN” value [2] was 0.17 mg/dL and the “TOTAL PROTEIN” value [2] was 6.17 G/DL. The “URIC ACID” value [2] was 1.2 mg/dL, the “ABSOLUTE BASOPHIL” value [3] was 0 CELLS/uL and the “ABSOLUTE EOSINOPHIL” value [3] was 197 CELLS/uL. The “ABSOLUTE LYMPHOCYTE” value [3] was 13021 CELLS/uL, the “ABSOLUTE SEGMENTED NEUTROPHIL” value [3] was 740.67 CELLS/uL and the BASOPHIL [3] was 0%. For the same compound, the EOSINOPHIL [3] was 1%, the “ERYTHROCYTE COUNT” value [3] was 6.01 x10E6/uL and the HEMATOCRIT [3] was 37.5%. The HEMOGLOBIN [3] was 14.23 G/DL, the “LEUKOCYTE COUNT” value [3] was 14.27 x10E3/uL and the LYMPHOCYTE [3] was 91.33%. The “MEAN CORPUSCULAR HEMOGLOBIN” value [3] was 23.77 pg, the “MEAN CORPUSCULAR HEMOGLOBIN CONCENTRATION” value [3] was 37.97 G/DL and the “MEAN CORPUSCULAR VOLUME” value [3] was 62.57 fL. The MONOCYTE [3] was 2%, the NEUTROPHIL [3] was 5.67% and the “NUCLEATED RED BLOOD CELLS” value [3] was 0 /100WBC. For the same compound, the “PLATELET COUNT” value [3] was 1370 x10E3/uL, the “ALANINE AMINOTRANSFERASE” value [3] was 67 u/L and the “ASPARTATE AMINOTRANSFERASE” value [3] was 98.33 u/L. For the same compound, the “BLOOD UREA NITROGEN” value [3] was 20.33 mg/dL, the “CARBON DIOXIDE” value [3] was 23.67 mmol/L and the CHLORIDE [3] was 100.67 MEQ/L. For the same compound, the CHOLESTEROL [3] was 62.67 mg/dL, the “CREATINE PHOSPHOKINASE” value [3] was 423.33 u/L and the CREATININE [3] was 0.18 mg/dL. The GLUCOSE [3] was 127 mg/dL, the “LACTATE DEHYDROGENASE” value [3] was 617.67 u/L and the LIPASE [3] was 9.33 u/L. For the same compound, the PHOSPHORUS [3] was 11.33 mg/dL, the POTASSIUM [3] was 6.92 MEQ/L and the SODIUM [3] was 141.13 MEQ/L. The “TOTAL BILIRUBIN” value [3] was 0.17 mg/dL, the “TOTAL PROTEIN” value [3] was 5.83 G/DL and the “URIC ACID” value [3] was 1.87 mg/dL. The “ABSOLUTE BASOPHIL” value [4] was 0 CELLS/uL, the “ABSOLUTE EOSINOPHIL” value [4] was 174 CELLS/uL and the “ABSOLUTE LYMPHOCYTE” value [4] was 14815.33 CELLS/uL. The “ABSOLUTE SEGMENTED NEUTROPHIL” value [4] was 1394.67 CELLS/uL, the BASOPHIL [4] was 0% and the EOSINOPHIL [4] was 1%. For the same compound, the “ERYTHROCYTE COUNT” value [4] was 6.46 x10E6/uL, the HEMATOCRIT [4] was 39.9% and the HEMOGLOBIN [4] was 15.17 G/DL. The “LEUKOCYTE COUNT” value [4] was 17.07 x10E3/uL, the LYMPHOCYTE [4] was 86.67% and the “MEAN CORPUSCULAR HEMOGLOBIN” value [4] was 23.47 pg. For the same compound, the “MEAN CORPUSCULAR HEMOGLOBIN CONCENTRATION” value [4] was 38.03 G/DL, the “MEAN CORPUSCULAR VOLUME” value [4] was 61.8 fL and the MONOCYTE [4] was 4%. For the same compound, the NEUTROPHIL [4] was 8.33%, the “NUCLEATED RED BLOOD CELLS” value [4] was 0.67 /100WBC and the “PLATELET COUNT” value [4] was 1286 x10E3/uL. For the same compound, the “ALANINE AMINOTRANSFERASE” value [4] was 89 u/L, the “ASPARTATE AMINOTRANSFERASE” value [4] was 125 u/L and the “BLOOD UREA NITROGEN” value [4] was 18.67 mg/dL. For the same compound, the “CARBON DIOXIDE” value [4] was 23.67 mmol/L, the CHLORIDE [4] was 105 MEQ/L and the CHOLESTEROL [4] was 67.33 mg/dL. For the same compound, the “CREATINE PHOSPHOKINASE” value [4] was 770 u/L, the CREATININE [4] was 0.14 mg/dL and the GLUCOSE [4] was 120 mg/dL. For the same compound, the “LACTATE DEHYDROGENASE” value [4] was 265.67 u/L, the LIPASE [4] was 9.5 u/L and the PHOSPHORUS [4] was 12.47 mg/dL. The POTASSIUM [4] was 6.33 MEQ/L, the SODIUM [4] was 149.25 MEQ/L and the “TOTAL BILIRUBIN” value [4] was 0.2 mg/dL. For the same compound, the “TOTAL PROTEIN” value [4] was 6.23 G/DL and the “URIC ACID” value [4] was 2.13 mg/dL.
